Assay results taken from PMC11845477, “Exploring the principles behind antibiotics with limited resistance” (Nature Communications, 2025).

Key:
[1] = test system: E. coli ATCC 25922 (SEN) and E. coli NCTC13846 (MDR); assay: Adaptive laboratory evolution (ALE), relative MIC of evolved lines; type: cell-based, Escherichia coli; details: for Relative MIC (log10): EC-SEN (Escherichia coli ATCC 25922)
Source text: (§1) Using the same set of bacterial strains, we initiated adaptive laboratory evolution with the aim to maximize the level of antibiotic resistance in the populations achieved during a longer, but fixed time period.
(§2) An established protocol for adaptive laboratory evolution[46],[73] was followed to propagate populations with the highest resistance levels. Starting with an antibiotic concentration that caused approximately 50% growth inhibition, ten parallel populations for each antibiotic-ancestor strain combination were grown for 72 hours at 37 °C with continuous shaking (300 RPM). MHB broth medium was used unless stated otherwise. After each incubation, 20 µl of each culture was transferred to four new wells containing fresh medium with increasing antibiotic concentrations (0.5×, 1×, 1.5×, and 2.5× the previous concentration) in a chessboard layout to monitor potential cross-contamination. Growth was monitored by measuring OD600 using a Biotek Synergy 2 microplate reader, and only populations grown in the highest drug concentration with an OD600 > 0.2 were transferred further.
(§3) A robotic liquid handling system was used to automatically prepare a 11 to 16-step serial dilution in 384-well microtiter plates (Greiner). A final concentration of 5 × 10^5 bacterial cells per mL were inoculated into each well containing 60 µL MHB medium. Bacterial cultures were incubated at 37 °C with continuous shaking (Infors shaker, 900 rpm with 3 mm throw) for 18 hours (2 replicates from each). Cell growth was monitored by measuring the optical density (OD600 values, using Biotek Synergy microplate reader). MIC was defined as the antibiotic concentration of complete growth inhibition (i.e., OD600 < 0.05). Relative MIC was calculated as follows:1 relativeMIC=MICevolved/MICancestor […]
(§4) Supplementary Figure 4. Resistance levels following adaptive laboratory evolution across bacterial strains. The level of resistance was measured as the fold change in relative MIC between evolved and ancestral strains after ~60 days of adaptive laboratory evolution. Data are grouped by bacterial strain (A. baumannii (AB), E. coli (EC), K. pneumoniae (KP), and P. aeruginosa (PA)) and categorized as either multidrug-resistant (MDR) or sensitive (SEN). Each data point represents a laboratory evolved line, and boxplots show the median, first and third quartiles, with whiskers indicating the 5th and 95th percentiles.
(§5) Statistical analysis was performed using two-sided Dunn’s post-hoc test with Benjamini-Hochberg correction for multiple comparisons (****/ ***/ **/ * indicates p < 0.0001/ 0.001/ 0.01/ 0.05). For detailed information on antibiotic and bacterial species, see Supplementary Table 1. For mode of action groups, refer to Table 1. Source data are provided as a Source Data file.
(1 picture or pasted object on this page, not shown here)

[2] = test system: A. baumannii ATCC 17978 (SEN) and A. baumannii ATCC BAA-1605 (MDR); assay: as above; type: cell-based, Acinetobacter baumannii; details: for Relative MIC (log10): AB-SEN (Acinetobacter baumannii ATCC 17978)
Source text: as §1, §2, §3, §4, §5

[3] = evolved line 2 adapted to the named antibiotic
[4] = evolved line 8 adapted to the named antibiotic

C[C@H]1c2cccc(O)c2C(=O)C2=C(O)[C@]3(O)C(=O)C(C(N)=O)=C(O)[C@@H](N(C)C)[C@@H]3[C@@H](O)[C@@H]21 [Doxycycline]
64: Relative MIC ([2]; AB-SEN (ATCC 17978), evolved line 2, MIC of evolved line / MIC of ancestor) | Relative MIC ([2]; Acinetobacter baumannii ATCC 17978 (AB-SEN), evolved line 2)
1.505: Relative MIC (log10) ([1]; evolved line 1 adapted to the named antibiotic) | Relative MIC (log10) ([1]; evolved line 3 adapted to the named antibiotic) | Relative MIC (log10) [1, 4] | Relative MIC (log10) ([2]; evolved line 4 adapted to the named antibiotic) | Relative MIC (log10) ([2]; evolved line 5 adapted to the named antibiotic) | Relative MIC (log10) ([2]; evolved line 7 adapted to the named antibiotic) | Relative MIC (log10) [2, 4]
32: Relative MIC ([1]; EC-SEN (ATCC 25922), evolved line 1, MIC of evolved line / MIC of ancestor) | Relative MIC ([1]; EC-SEN (ATCC 25922), evolved line 3, MIC of evolved line / MIC of ancestor) | Relative MIC ([1]; EC-SEN (ATCC 25922), evolved line 8, MIC of evolved line / MIC of ancestor) | Relative MIC ([1]; Escherichia coli ATCC 25922 (EC-SEN), evolved line 1) | Relative MIC ([1]; Escherichia coli ATCC 25922 (EC-SEN), evolved line 3) | Relative MIC ([1]; Escherichia coli ATCC 25922 (EC-SEN), evolved line 8) | Relative MIC ([2]; AB-SEN (ATCC 17978), evolved line 1, MIC of evolved line / MIC of ancestor) | Relative MIC ([2]; AB-SEN (ATCC 17978), evolved line 4, MIC of evolved line / MIC of ancestor) | Relative MIC ([2]; AB-SEN (ATCC 17978), evolved line 5, MIC of evolved line / MIC of ancestor) | Relative MIC ([2]; AB-SEN (ATCC 17978), evolved line 7, MIC of evolved line / MIC of ancestor) | Relative MIC ([2]; AB-SEN (ATCC 17978), evolved line 8, MIC of evolved line / MIC of ancestor) | Relative MIC ([2]; Acinetobacter baumannii ATCC 17978 (AB-SEN), evolved line 1) | Relative MIC ([2]; Acinetobacter baumannii ATCC 17978 (AB-SEN), evolved line 4) | Relative MIC ([2]; Acinetobacter baumannii ATCC 17978 (AB-SEN), evolved line 5) | Relative MIC ([2]; Acinetobacter baumannii ATCC 17978 (AB-SEN), evolved line 7) | Relative MIC ([2]; Acinetobacter baumannii ATCC 17978 (AB-SEN), evolved line 8)
128: Relative MIC ([1]; EC-SEN (ATCC 25922), evolved line 4, MIC of evolved line / MIC of ancestor) | Relative MIC ([1]; Escherichia coli ATCC 25922 (EC-SEN), evolved line 4)
1.204: Relative MIC (log10) [1, 3] | Relative MIC (log10) ([1]; evolved line 9 adapted to the named antibiotic)
1.806: Relative MIC (log10) [2, 3]
8: Relative MIC ([1]; EC-SEN (ATCC 25922), evolved line 6, MIC of evolved line / MIC of ancestor) | Relative MIC ([1]; Escherichia coli ATCC 25922 (EC-SEN), evolved line 6)
16: Relative MIC ([1]; EC-SEN (ATCC 25922), evolved line 2, MIC of evolved line / MIC of ancestor) | Relative MIC ([1]; EC-SEN (ATCC 25922), evolved line 7, MIC of evolved line / MIC of ancestor) | Relative MIC ([1]; EC-SEN (ATCC 25922), evolved line 9, MIC of evolved line / MIC of ancestor) | Relative MIC ([1]; EC-SEN (ATCC 25922), evolved line 10, MIC of evolved line / MIC of ancestor) | Relative MIC ([1]; Escherichia coli ATCC 25922 (EC-SEN), evolved line 2) | Relative MIC ([1]; Escherichia coli ATCC 25922 (EC-SEN), evolved line 7) | Relative MIC ([1]; Escherichia coli ATCC 25922 (EC-SEN), evolved line 9) | Relative MIC ([1]; Escherichia coli ATCC 25922 (EC-SEN), evolved line 10) | Relative MIC ([2]; AB-SEN (ATCC 17978), evolved line 3, MIC of evolved line / MIC of ancestor) | Relative MIC ([2]; AB-SEN (ATCC 17978), evolved line 6, MIC of evolved line / MIC of ancestor) | Relative MIC ([2]; AB-SEN (ATCC 17978), evolved line 9, MIC of evolved line / MIC of ancestor) | Relative MIC ([2]; AB-SEN (ATCC 17978), evolved line 10, MIC of evolved line / MIC of ancestor) | Relative MIC ([2]; Acinetobacter baumannii ATCC 17978 (AB-SEN), evolved line 3) | Relative MIC ([2]; Acinetobacter baumannii ATCC 17978 (AB-SEN), evolved line 6) | Relative MIC ([2]; Acinetobacter baumannii ATCC 17978 (AB-SEN), evolved line 9) | Relative MIC ([2]; Acinetobacter baumannii ATCC 17978 (AB-SEN), evolved line 10)
